Experimental data taken from US8247211B2, “Glycopeptide antibiotics” (American Cyanamid Company, priority 2001, dated 2012).
≈ marks a conversion by molar mass, not a printed value. One block for each molecule: values may come before it.

What was measured:
Assay in all cases: In vitro antibacterial evaluation: minimum inhibitory concentration (MIC), broth dilution method
Format in all cases: cell-based
Enterococcus sp. = conditions: broth dilution, 18 hours at 35° C.
Procedure, shortened: (§1)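 NCCLS M7-A2 broth dilution; Muller-Hinton II […]; 5×10^5 CFU/mL; 64-0.06 μg/mL. MIC = lowest concentration with no growth.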

Staphylococcus sp. = conditions: broth dilution, 18 hours at 35° C.; for MIC Staphylococcus aureus-SMITH (GC 4543): strain SMITH GC 4543
Procedure, shortened: as §1

Streptococcus sp. = conditions: broth dilution, 18 hours at 35° C.
Procedure, shortened: as §1

Escherichia coli = conditions: broth dilution, 18 hours at 35° C.
[1] = Enterococcus faecalis (ATCC 29212)
[2] = Enterococcus faecalis (GC 2242)
[3] = Enterococcus faecalis (GC 2691)
[4] = Enterococcus faecalis (GC 3059)
[5] = Enterococcus faecalis (GC 4552)
[6] = Enterococcus faecalis (GC 4553)
[7] = Enterococcus faecalis (GC 4554)
[8] = Enterococcus faecalis (GC 6189)
[9] = Streptococcus agalactiae (GC 4564)
[10] = Streptococcus pneumoniae (ATCC 6301)
[11] = Streptococcus pneumoniae (GC 1894)
[12] = Streptococcus pneumoniae (GC 4565)
[13] = Streptococcus pyogenes (GC 4563)

MIC Enterococcus avium (GC 4558) (Enterococcus sp.; Enterococcus avium (GC 4558)): 4 µg/mL (≈ 3.55 µM)
MIC Enterococcus faecalis (ATCC 29212) (Enterococcus sp.; [1]): 8 µg/mL (≈ 7.09 µM)
MIC Enterococcus faecalis (GC 2242) (Enterococcus sp.; [2]): 4 µg/mL (≈ 3.55 µM)
MIC Enterococcus faecalis (GC 2691) (Enterococcus sp.; [3]): 8 µg/mL (≈ 7.09 µM)
MIC Enterococcus faecalis (GC 3059) (Enterococcus sp.; [4]): 8 µg/mL (≈ 7.09 µM)
MIC Enterococcus faecalis (GC 4552) (Enterococcus sp.; [5]): 8 µg/mL (≈ 7.09 µM)
MIC Enterococcus faecalis (GC 4553) (Enterococcus sp.; [6]): 8 µg/mL (≈ 7.09 µM)
MIC Enterococcus faecalis (GC 4554) (Enterococcus sp.; [7]): 4 µg/mL (≈ 3.55 µM)
MIC Enterococcus faecalis (GC 6189) (Enterococcus sp.; [8]): 4 µg/mL (≈ 3.55 µM)
MIC Enterococcus faecium (GC 2243) (Enterococcus sp.; Enterococcus faecium (GC 2243)): 4 µg/mL (≈ 3.55 µM)
MIC Enterococcus faecium (GC 4556) (Enterococcus sp.; Enterococcus faecium (GC 4556)): 8 µg/mL (≈ 7.09 µM)
MIC Enterococcus faecium (GC 4557) (Enterococcus sp.; Enterococcus faecium (GC 4557)): 2 µg/mL (≈ 1.77 µM)
MIC Enterococcus avium (GC 4558) (Enterococcus sp.): 4 µg/mL (≈ 3.55 µM)
MIC Enterococcus faecalis (ATCC 29212) (Enterococcus sp.): 8 µg/mL (≈ 7.09 µM)
MIC Enterococcus faecalis (GC 2242) (Enterococcus sp.): 4 µg/mL (≈ 3.55 µM)
MIC Enterococcus faecalis (GC 2691) (Enterococcus sp.): 8 µg/mL (≈ 7.09 µM)
MIC Enterococcus faecalis (GC 3059) (Enterococcus sp.): 8 µg/mL (≈ 7.09 µM)
MIC Enterococcus faecalis (GC 4552) (Enterococcus sp.): 8 µg/mL (≈ 7.09 µM)
MIC Enterococcus faecalis (GC 4553) (Enterococcus sp.): 8 µg/mL (≈ 7.09 µM)
MIC Enterococcus faecalis (GC 4554) (Enterococcus sp.): 4 µg/mL (≈ 3.55 µM)
MIC Enterococcus faecalis (GC 6189) (Enterococcus sp.): 4 µg/mL (≈ 3.55 µM)
MIC Enterococcus faecium (GC 2243) (Enterococcus sp.): 4 µg/mL (≈ 3.55 µM)
MIC Enterococcus faecium (GC 4556) (Enterococcus sp.): 8 µg/mL (≈ 7.09 µM)
MIC Enterococcus faecium (GC 4557) (Enterococcus sp.): 2 µg/mL (≈ 1.77 µM)
MIC Coagulase Negative Staphylococcus (GC 4547) (Staphylococcus sp.): 2 µg/mL (≈ 1.77 µM)
MIC Coagulase Negative Staphylococcus (GC 4548) (Staphylococcus sp.): 1 µg/mL (≈ 0.886 µM)
MIC Coagulase Negative Staphylococcus (GC 4549) (Staphylococcus sp.): 2 µg/mL (≈ 1.77 µM)
MIC Coagulase Negative Staphylococcus (GC 4551) (Staphylococcus sp.): 4 µg/mL (≈ 3.55 µM)
MIC Coagulase Negative Staphylococcus (GC 6257) (Staphylococcus sp.): 2 µg/mL (≈ 1.77 µM)
MIC Staphylococcus aureus SMITH (GC 4543) (Staphylococcus sp.): 2 µg/mL (≈ 1.77 µM)
MIC Staphylococcus aureus-SMITH (GC 4543) (Staphylococcus sp.): 2 µg/mL (≈ 1.77 µM)
MIC Streptococcus agalactiae (GC 4564) (Streptococcus sp.; [9]): 16 µg/mL (≈ 14.2 µM)
MIC Streptococcus pneumoniae (ATCC 6301) (Streptococcus sp.; [10]): 16 µg/mL (≈ 14.2 µM)
MIC Streptococcus pneumoniae (GC 1894) (Streptococcus sp.; [11]): 16 µg/mL (≈ 14.2 µM)
MIC Streptococcus pneumoniae (GC 4565) (Streptococcus sp.; [12]): 16 µg/mL (≈ 14.2 µM)
MIC Streptococcus pyogenes (GC 4563) (Streptococcus sp.; [13]): 8 µg/mL (≈ 7.09 µM)
MIC Streptococcus agalactiae (GC 4564) (Streptococcus sp.): 16 µg/mL (≈ 14.2 µM)
MIC Streptococcus pneumoniae (ATCC 6301) (Streptococcus sp.): 16 µg/mL (≈ 14.2 µM)
MIC Streptococcus pneumoniae (GC 1894) (Streptococcus sp.): 16 µg/mL (≈ 14.2 µM)
MIC Streptococcus pneumoniae (GC 4565) (Streptococcus sp.): 16 µg/mL (≈ 14.2 µM)
MIC Streptococcus pyogenes (GC 4563) (Streptococcus sp.): 8 µg/mL (≈ 7.09 µM)
MIC Escherichia coli (ATCC 25922) (Escherichia coli): 16 µg/mL (≈ 14.2 µM)
MIC Escherichia coli (GC 4559) (Escherichia coli): 16 µg/mL (≈ 14.2 µM)
MIC Escherichia coli (GC 4560) (Escherichia coli): 4 µg/mL (≈ 3.55 µM)
Structure (SMILES): CC(c1ccccc1)C1NC(=O)CNC(=O)C(CO)NC(=O)C(C(O)C2CNC(=N)N2C2OC(CO)C(O)C(O)C2O)NC(=O)C(C(O)C2CNC(=N)N2)NC(=O)C(Cc2ccc3oc(-c4ccc(C(C)(C)C)cc4)nc3c2)NC1=O (stereo not drawn) [Example 32, Cyclo[3-[2-(4-tert-butylphenyl)-1,3-benzoxazol-5-yl]alanyl-3-(2-iminoimidazolidin-4-yl)seryl-3-(3-hexopyranosyl-2-iminoimidazolidin-4-yl)serylserylglycyl-β-methylphenylalanyl]]
MIC Staphylococcus haemolyticus (GC 4546) (Staphylococcus sp.): 2 µg/mL (≈ 1.77 µM)

MIC Enterococcus avium (GC 4558) (Enterococcus sp.; Enterococcus avium (GC 4558)): 16 µg/mL (≈ 13.8 µM)
MIC Enterococcus faecalis (ATCC 29212) (Enterococcus sp.; [1]): 64 µg/mL (≈ 55.1 µM)
MIC Enterococcus faecalis (GC 2242) (Enterococcus sp.; [2]): 32 µg/mL (≈ 27.5 µM)
MIC Enterococcus faecalis (GC 2691) (Enterococcus sp.; [3]): 32 µg/mL (≈ 27.5 µM)
MIC Enterococcus faecalis (GC 3059) (Enterococcus sp.; [4]): 32 µg/mL (≈ 27.5 µM)
MIC Enterococcus faecalis (GC 4552) (Enterococcus sp.; [5]): 32 µg/mL (≈ 27.5 µM)
MIC Enterococcus faecalis (GC 4553) (Enterococcus sp.; [6]): 32 µg/mL (≈ 27.5 µM)
MIC Enterococcus faecalis (GC 4554) (Enterococcus sp.; [7]): 32 µg/mL (≈ 27.5 µM)
MIC Enterococcus faecalis (GC 6189) (Enterococcus sp.; [8]): 64 µg/mL (≈ 55.1 µM)
MIC Enterococcus faecium (GC 2243) (Enterococcus sp.; Enterococcus faecium (GC 2243)): 32 µg/mL (≈ 27.5 µM)
MIC Enterococcus faecium (GC 4556) (Enterococcus sp.; Enterococcus faecium (GC 4556)): 64 µg/mL (≈ 55.1 µM)
MIC Enterococcus faecium (GC 4557) (Enterococcus sp.; Enterococcus faecium (GC 4557)): 8 µg/mL (≈ 6.88 µM)
MIC Enterococcus avium (GC 4558) (Enterococcus sp.): 16 µg/mL (≈ 13.8 µM)
MIC Enterococcus faecalis (ATCC 29212) (Enterococcus sp.): 64 µg/mL (≈ 55.1 µM)
MIC Enterococcus faecalis (GC 2242) (Enterococcus sp.): 32 µg/mL (≈ 27.5 µM)
MIC Enterococcus faecalis (GC 2691) (Enterococcus sp.): 32 µg/mL (≈ 27.5 µM)
MIC Enterococcus faecalis (GC 3059) (Enterococcus sp.): 32 µg/mL (≈ 27.5 µM)
MIC Enterococcus faecalis (GC 4552) (Enterococcus sp.): 32 µg/mL (≈ 27.5 µM)
MIC Enterococcus faecalis (GC 4553) (Enterococcus sp.): 32 µg/mL (≈ 27.5 µM)
MIC Enterococcus faecalis (GC 4554) (Enterococcus sp.): 32 µg/mL (≈ 27.5 µM)
MIC Enterococcus faecalis (GC 6189) (Enterococcus sp.): 64 µg/mL (≈ 55.1 µM)
MIC Enterococcus faecium (GC 2243) (Enterococcus sp.): 32 µg/mL (≈ 27.5 µM)
MIC Enterococcus faecium (GC 4556) (Enterococcus sp.): 64 µg/mL (≈ 55.1 µM)
MIC Enterococcus faecium (GC 4557) (Enterococcus sp.): 8 µg/mL (≈ 6.88 µM)
MIC Coagulase Negative Staphylococcus (GC 4547) (Staphylococcus sp.): 16 µg/mL (≈ 13.8 µM)
MIC Coagulase Negative Staphylococcus (GC 4548) (Staphylococcus sp.): 16 µg/mL (≈ 13.8 µM)
MIC Coagulase Negative Staphylococcus (GC 4549) (Staphylococcus sp.): 4 µg/mL (≈ 3.44 µM)
MIC Coagulase Negative Staphylococcus (GC 4551) (Staphylococcus sp.): 32 µg/mL (≈ 27.5 µM)
MIC Coagulase Negative Staphylococcus (GC 6257) (Staphylococcus sp.): 8 µg/mL (≈ 6.88 µM)
MIC Staphylococcus aureus SMITH (GC 4543) (Staphylococcus sp.): 16 µg/mL (≈ 13.8 µM)
MIC Staphylococcus aureus-SMITH (GC 4543) (Staphylococcus sp.): 16 µg/mL (≈ 13.8 µM)
MIC Streptococcus agalactiae (GC 4564) (Streptococcus sp.; [9]): 32 µg/mL (≈ 27.5 µM)
MIC Streptococcus pneumoniae (ATCC 6301) (Streptococcus sp.; [10]): 32 µg/mL (≈ 27.5 µM)
MIC Streptococcus pneumoniae (GC 1894) (Streptococcus sp.; [11]): 16 µg/mL (≈ 13.8 µM)
MIC Streptococcus pneumoniae (GC 4565) (Streptococcus sp.; [12]): 32 µg/mL (≈ 27.5 µM)
MIC Streptococcus pyogenes (GC 4563) (Streptococcus sp.; [13]): 8 µg/mL (≈ 6.88 µM)
MIC Streptococcus agalactiae (GC 4564) (Streptococcus sp.): 32 µg/mL (≈ 27.5 µM)
MIC Streptococcus pneumoniae (ATCC 6301) (Streptococcus sp.): 32 µg/mL (≈ 27.5 µM)
MIC Streptococcus pneumoniae (GC 1894) (Streptococcus sp.): 16 µg/mL (≈ 13.8 µM)
MIC Streptococcus pneumoniae (GC 4565) (Streptococcus sp.): 32 µg/mL (≈ 27.5 µM)
MIC Streptococcus pyogenes (GC 4563) (Streptococcus sp.): 8 µg/mL (≈ 6.88 µM)
MIC Escherichia coli (ATCC 25922) (Escherichia coli): 64 µg/mL (≈ 55.1 µM)
MIC Escherichia coli (GC 4559) (Escherichia coli): 64 µg/mL (≈ 55.1 µM)
MIC Escherichia coli (GC 4560) (Escherichia coli): 16 µg/mL (≈ 13.8 µM)
Structure (SMILES): COc1cc(-c2nc3cc(CC4NC(=O)C(C(C)c5ccccc5)NC(=O)CNC(=O)C(CO)NC(=O)C(C(O)C5CNC(=N)N5C5OC(CO)C(O)C(O)C5O)NC(=O)C(C(O)C5CNC(=N)N5)NC4=O)ccc3o2)cc(OC)c1OC (stereo not drawn) [Example 34, Cyclo[3-[2-(3,4,5-trimethoxyphenyl)-1,3-benzoxazol-5-yl]alanyl-3-(2-iminoimidazolidin-4-yl)seryl-3-(3-hexopyranosyl-2-iminoimidazolidin-4-yl)serylserylglycyl-β-methylphenyl-alanyl]]
MIC Staphylococcus haemolyticus (GC 4546) (Staphylococcus sp.): 8 µg/mL (≈ 6.88 µM)
